# Data taken from US7169932B2 (priority 2001, dated 2007).
# Read-outs that look alike come from different tables or passages of the source.
# Legend:
# [1] = tested on: HIV-1; assay: Cytopathic Effect (CPE) Inhibition Assay (XTT dye reduction); type: cell-based
# Experimental: T-cell lines, CEM-SS, and MT-2, and viruses HIV-1 RF and HIV-1 NL4–3 (pNL4–3) were obtained from the National Institutes of Health (AIDS Research and Reference Reagent Program, Bethesda, Md.).
# The ability of compounds to protect cells against HIV infection was measured by the […] dye reduction method, essentially as described (See Pauwels, R. Balzarini, J. Baba, M. Snoeck, R. Schols, D. Herdewijn, P. Desmyter, J. and De Clercq, E. 1988, “Rapid and automated tetrazolium-based colorimetric assay for the detection of anti-HIV compounds,”. J Virol Methods., 20: 309–321 and Weislow, O. S. Kiser, R. Fine, D. L. Bader, J. Shoemaker, R. H. and Boyd, M. R. 1989. “New soluble-formazan assay for HIV-1 cytopathic effects: application to high-flux screening of synthetic and natural products for AIDS-antiviral activity”. J. Natl. Cancer Inst. 81:577–586). Subject cells were infected with test virus at an moi of 0.025 to 0.819 or mock infected with medium only and added at 2×10^4 cells per well into 96 well plates containing half-log dilutions of test compounds. Six days later, 50 μl of XTT (1 mg/ml XTT tetrazolium, […] phenazine methosulfate) was added to the wells and the plate was reincubated for four hours. Viability, as determined by the amount of XTT formazan produced, was quantified spectrophotometrically by absorbance at 450 nm. Data from CPE assays were expressed as the percent of formazan produced in compound-treated cells compared to formazan produced in wells of uninfected, compound-free cells. The fifty percent effective concentration (EC50) was calculated as the concentration of compound that effected an increase in the percentage of formazan production in infected, compound-treated cells to 50% of that produced by uninfected, compound-free cells. The 50% cytotoxicity concentration (CC50) was calculated as the concentration of compound that decreased the percentage of formazan produced in uninfected, compound-treated cells to 50% of that produced in uninfected, compound-free cells. The therapeutic index was calculated by dividing the cytotoxicity (CC50) by the antiviral activity (EC50).
# [2] = target: T1, HIV-1 protease (Q7S) (Human immunodeficiency virus type 1 group M subtype B, UniProt P04585, Q495S); assay: HIV-1 Protease RET Assay; type: biochemical
# T1 construct: made in house
# In short: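 Ki values came from a RET assay on refolded Q7S protease (2 nM active dimer) cleaving RE(EDANS)SQNYPIVQK(DABCYL)R at 5 μM, read at ex 340/em 490 nm. Reactions ran 12 min at 37 C in 0.1M sodium acetate pH 4.8, 1M NaCl, 5 mM DTT, 10% DMSO; curves were fit with the Morrison tight-binding equation.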
# [3] = Human immunodeficiency virus 1, 144 h, read-out: Ave CPE EC50 (mM)
# [4] = Ave. Ki (nM), RET assay, Q7S enzyme, pH 4.8, 37 C
# [5] = Ki, table of drawn compounds, unit inferred
compound,measurement,setting,value
"CCCNC(=O)[C@H]1N(C(=O)[C@@H](O)[C@H](Cc2ccccc2)NC(=O)c2cccc(F)c2C)CSC1(C)C [Example B31, (R)-3-((2S,3S)-3-{[1-(3-Fluoro-2-methyl-phenyl)-methanoyl]-amino}-2-hydroxy-4-phenyl-butanoyl)-5,5-dimethyl-thiazolidine-4-carboxylic acid propylamide]",EC50,[1]; [3],1320 nM
same,Ki,[2]; [4],1.5 nM
Cc1c(O)cccc1C(=O)N[C@@H](Cc1ccccc1)[C@H](O)C(=O)N1CSC(C)(C)C1C(=O)NCCC(C)C (stereo partly shown),EC50,[1]; Human immunodeficiency virus 1,72 nM
same,Ki,[2]; [5],≤ 0.1 nM
"Cc1ccccc1CNC(=O)[C@H]1N(C(=O)[C@@H](O)[C@H](Cc2ccccc2)NC(=O)c2cc(Cl)on2)CSC1(C)C [Example B4, 5-Chloro-isoxazole-3-carboxylic acid {(1S,2S)-1-benzyl-3-[(R)-5,5-dimethyl-4-(2-methyl-benzylcarbamoyl)-thiazolidin-3-yl]-2-hydroxy-3-oxo-propyl}-amide]",EC50,[1]; [3],551 nM
same,Ki,[2]; [4],1.7 nM
Cc1cccc(CNC(=O)[C@H]2N(C(=O)[C@@H](O)[C@H](Cc3ccccc3)NC(=O)c3cccc(O)c3C)CSC2(C)C)c1,EC50,[1]; Human immunodeficiency virus 1,76 nM
same,Ki,[2]; [5],1.5 nM
Cc1ccsc1CNC(=O)[C@H]1N(C(=O)[C@@H](O)[C@H](Cc2ccccc2)NC(=O)c2cccc(O)c2C)CSC1(C)C [Example A8],EC50,[1]; [3],36 nM
same,Ki,[2]; [4],0.23 nM
Cc1cc(C(=O)N[C@@H](Cc2ccccc2)[C@H](O)C(=O)N2CSC(C)(C)[C@H]2C(=O)NCc2ccccc2C)n[nH]1,EC50,[1]; Human immunodeficiency virus 1,3000 nM
same,Ki,[2]; [5],19.5 nM
"Cn1cccc1C(=O)N[C@@H](Cc1ccccc1)[C@H](O)C(=O)N1CSC(C)(C)[C@H]1C(=O)NCc1ccccc1C(F)(F)F [Example B26, 3-{2-Hydroxy-3-[(1-methyl-1H-pyrrole-2-carbonyl)-amino]-4-phenyl-butyryl}-5,5-dimethyl-thiazolidine-4-carboxylic acid 2-trifluoromethyl-benzylamide]",EC50,[1]; [3],1710 nM
same,Ki,[2]; [4],2.9 nM
Cc1ccccc1CNC(=O)[C@H]1N(C(=O)[C@@H](O)[C@H](Cc2ccccc2)NC(=O)c2cccc(O)n2)CSC1(C)C [Example B48],EC50,[1]; [3],> 3200 nM
same,Ki,[2]; [4],12 nM
Cc1c(O)cccc1C(=O)N[C@@H](Cc1ccccc1)[C@H](O)C(=O)N1CSC(C)(C)[C@H]1C(=O)NCc1ccc(C(F)(F)F)cc1F,EC50,[1]; Human immunodeficiency virus 1,1400 nM
same,Ki,[2]; [5],11.1 nM
"C/C=C\CNC(=O)[C@H]1N(C(=O)[C@@H](O)[C@H](Cc2ccccc2)NC(=O)c2cccc(O)c2C)CSC1(C)C [Example A31, (R)-3-((2S,3S)-2-Hydroxy-3-{[1-(3-hydroxy-2-methyl-phenyl)-methanoyl]-amino}-4-phenyl-butanoyl)-5,5-dimethyl-thiazolidine-4-carboxylic acid (Z)-but-2-enylamide]",EC50,[1]; [3],41 nM
same,Ki,[2]; [4],< 0.1 nM
COCCNC(=O)[C@H]1N(C(=O)[C@@H](O)[C@H](Cc2ccccc2)NC(=O)c2cccc(O)c2C)CSC1(C)C,EC50,[1]; Human immunodeficiency virus 1,158 nM
same,Ki,[2]; [5],0.24 nM
"Cc1ccccc1CNC(=O)[C@H]1N(C(=O)[C@@H](O)[C@H](Cc2ccccc2)NC(=O)c2cccc(F)c2C)CSC1(C)C [Example B36, (R)-3-((2S,3S)-3-{[1-(3-Fluoro-2-methyl-phenyl)-methanoyl]-amino}-2-hydroxy-4-phenyl-butanoyl)-5,5-dimethyl-thiazolidine-4-carboxylic acid 2-methyl-benzylamide]",EC50,[1]; [3],615 nM
same,Ki,[2]; [4],< 0.1 nM
"Cc1ccccc1CNC(=O)[C@H]1N(C(=O)[C@@H](O)[C@H](Cc2ccccc2)NC(=O)c2cccn2C)CSC1(C)C [Example B12, (R)-3-{(2S,3S)-2-Hydroxy-3-[(1-methyl-1H-pyrrole-2-carbonyl)-amino]-4-phenyl-butyryl}-5,5-dimethyl-thiazolidine-4-carboxylic acid 2-methyl-benzylamide]",EC50,[1]; [3],1400 nM
same,Ki,[2]; [4],0.45 nM
"Cc1c(O)cccc1C(=O)N[C@@H](Cc1ccccc1)[C@H](O)C(=O)N1CSC(C)(C)[C@H]1C(=O)NCC(=O)c1ccccc1 [Example A10, (R)-3-((2S,3S)-2-Hydroxy-3-{[1-(3-hydroxy-2-methyl-phenyl)-methanoyl]-amino}-4-phenyl-butanoyl)-5,5-dimethyl-thiazolidine-4-carboxylic acid (2-oxo-2-phenyl-ethyl)-amide]",EC50,[1]; [3],> 1000 nM
same,Ki,[2]; [4],51 nM
"Cc1ccccc1CNC(=O)C1N(C(=O)C(O)C(Cc2ccccc2)NC(=O)C2=NNC(=O)CC2)CSC1(C)C (stereo not shown) [Example B18, 6-Oxo-1,4,5,6-tetrahydro-pyridazine-3-carboxylic acid {1-benzyl-3-[5,5-dimethyl-4-(2-methyl-benzylcarbamoyl)-thiazolidin-3-yl]-2-hydroxy-3-oxo-propyl}-amide]",EC50,[1]; [3],457 nM
same,Ki,[2]; [4],0.29 nM
Cc1c(O)cccc1C(=O)N[C@@H](Cc1ccccc1)[C@H](O)C(=O)N1CSC(C)(C)[C@H]1C(=O)NCCC(C)(C)C,EC50,[1]; Human immunodeficiency virus 1,1060 nM
same,Ki,[2]; [5],4.7 nM
"Cn1cccc1C(=O)N[C@@H](Cc1ccccc1)[C@H](O)C(=O)N1CSC(C)(C)[C@H]1C(=O)NCc1c(F)cccc1F [Example B24, 3-{2-Hydroxy-3-[(1-methyl-1H-pyrrole-2-carbonyl)-amino]-4-phenyl-butyryl}-5,5-dimethyl-thiazolidine-4-carboxylic acid 2,6-difluoro-benzylamide]",EC50,[1]; [3],2320 nM
same,Ki,[2]; [4],5.5 nM
C=CCN(C)C(=O)[C@H]1N(C(=O)[C@@H](O)[C@H](Cc2ccccc2)NC(=O)c2ccno2)CSC1(C)C,EC50,[1]; Human immunodeficiency virus 1,4950 nM
same,Ki,[2]; [5],24.6 nM
"C#CCN(C)C(=O)[C@H]1N(C(=O)[C@@H](O)[C@H](Cc2ccccc2)NC(=O)c2cccc(O)c2C)CSC1(C)C [Example A27, (R)-3-((2S,3S)-2-Hydroxy-3-{[1-(3-hydroxy-2-methyl-phenyl)-methanoyl]-amino}-4-phenyl-butanoyl)-5,5-dimethyl-thiazolidine-4-carboxylic acid methyl-prop-2-ynyl-amide]",EC50,[1]; [3],72 nM
same,Ki,[2]; [4],0.62 nM
Cc1c(O)cccc1C(=O)N[C@@H](Cc1ccccc1)[C@H](O)C(=O)N1CSC(C)(C)[C@H]1C(=O)NCc1cccc(CN(C)C)c1,EC50,[1]; Human immunodeficiency virus 1,3200 nM
same,Ki,[2]; [5],10.5 nM
"Cc1c(O)cccc1C(=O)N[C@@H](Cc1ccccc1)[C@H](O)C(=O)N1CSC(C)(C)[C@H]1C(=O)NCCC(F)(F)F [Example A45, (R)-3-((2S,3S)-2-Hydroxy-3-{[1-(3-hydroxy-2-methyl-phenyl)-methanoyl]-amino}-4-phenyl-butanoyl)-5,5-dimethyl-thiazolidine-4-carboxylic acid (3,3,3-trifluoro-propyl)-amide]",EC50,[1]; [3],165 nM
same,Ki,[2]; [4],0.51 nM
Cc1ccc(CNC(=O)[C@H]2N(C(=O)[C@@H](O)[C@H](Cc3ccccc3)NC(=O)c3cccc(O)c3C)CSC2(C)C)cc1,EC50,[1]; Human immunodeficiency virus 1,141 nM
same,Ki,[2]; [5],0.73 nM
"C=CCNC(=O)[C@H]1N(C(=O)[C@@H](O)[C@H](Cc2ccccc2)NC(=O)c2cccc(F)c2C)CSC1(C)C [Example B33, (R)-3-((2S,3S)-3-{[1-(3-Fluoro-2-methyl-phenyl)-methanoyl]-amino}-2-hydroxy-4-phenyl-butanoyl)-5,5-dimethyl-thiazolidine-4-carboxylic acid allylamide]",EC50,[1]; [3],1290 nM
same,Ki,[2]; [4],1.2 nM
"Cc1c(O)cccc1C(=O)N[C@@H](Cc1ccccc1)[C@H](O)C(=O)N1CSC(C)(C)[C@H]1C(=O)NCc1ccc(C(F)(F)F)cc1 [Example A9, (R)-3-((2S,3S)-2-Hydroxy-3-{[1-(3-hydroxy-2-methyl-phenyl)-methanoyl]-amino}-4-phenyl-butanoyl)-5,5-dimethyl-thiazolidine-4-carboxylic acid 4-trifluoromethyl-benzylamide]",EC50,[1]; [3],565 nM
same,Ki,[2]; [4],4 nM
"Cc1ccccc1CNC(=O)[C@H]1N(C(=O)[C@@H](O)[C@H](Cc2ccccc2)NC(=O)c2sc(N)nc2C)CSC1(C)C [Example B15, 2-Amino-4-methyl-thiazole-5-carboxylic acid {(S)-1-benzyl-3-[5,5-dimethyl-4-(2-methyl-benzylcarbamoyl)-thiazolidin-3-yl]-2-hydroxy-3-oxo-propyl}-amide]",EC50,[1]; [3],1090 nM
same,Ki,[2]; [4],2 nM
"CCCOc1cccc(CNC(=O)[C@H]2N(C(=O)[C@@H](O)[C@H](Cc3ccccc3)NC(=O)c3cccc(O)c3C)CSC2(C)C)c1 [Example A43, (R)-3-((2S,3S)-2-Hydroxy-3-{[1-(3-hydroxy-2-methyl-phenyl)-methanoyl]-amino}-4-phenyl-butanoyl)-5,5-dimethyl-thiazolidine-4-carboxylic acid 3-propoxy-benzylamide]",EC50,[1]; [3],561 nM
same,Ki,[2]; [4],0.35 nM
